# Measurements published in US12611443B2, “Methods and compositions related to therapeutic peptides for cancer therapy” (THE UNIVERSITY OF CHICAGO, priority 2018, dated 2026).
# Entries after “also recorded” stand apart in the source; their conditions may differ.
# Experiments:
# hCD95 = test: Cleavage of recombinant human CD95 proteins/peptides by ELANE (SDS-PAGE, mass spectrometry); format: biochemical; settings: recombinant aa 1-173 and aa 212-335
# Procedure: Identification of ELANE cleavage sites in CD95 by mass spectrometry. Recombinant human C-terminal CD95 (aa 212-335, MyBioSource, 10 μg) or recombinant N-terminal CD95 (aa 1-173, ThermoFisher Scientific, 10 μg) were digested with human ELANE (0.1 μg) for 2 h at 37° C., and reactions were stopped with SDS-PAGE loading buffer. Proteins were run on 20% SDS-PAGE gels, stained with Coomassie Blue (ThermoFisher Scientific), and bands were excised for mass spectrometric analyses. Proteins were extracted from excised bands.
# Analysis of recombinant peptides by mass spectrometry. Recombinant peptides (10 μM) corresponding to aa 214-([…])-231 (SEQ ID NO:6) or 317-([…])-335 (SEQ ID NO:7) of human CD95 (ThermoFisher Scientific) were incubated with ELANE (0.1-0.2 μM) at 37° C. for 15-30 min. Reactions were stopped with 0.1% formic acid.
# [1] = Assessment of potential side-effects in tumor-free C57BL/6 mice; format: in vivo
# Procedure: (§1) Assessment of potential side-effects. ELANE or PMSF-ELANE (11.6 μg/100 μL) were injected into the 4th mammary fat pad of the right ventral side pad of tumor-free C57BL/6 mice once/day for 5 days. One day after the last injection, mice were studied for potential side-effects. Body weight and spleen weight were measured. Apoptosis at the injection site was studied by isolating, fixing, and staining mammary adipose tissue for TUNEL, cCASP3, and cPARP using identical methods described for tumors above. Mammary adipose tissue immune cell populations at the injection site were determined by flow cytometry using identical methods described for tumors above. Liver function was assessed by measuring plasma ALT activity with the Alanine Transaminase Colorimetric Activity Assays Kit (Cayman Chemical).
# [2] = test system: tumors (MDA-MB-231, A549, MEL888, M1, 4195, E0771, LLC1, B16F10); test: Intra-tumoral treatment of tumor models (xenograft, PDX, syngeneic); format: in vivo, mice
# Procedure: Tumor inoculation and treatment. MDA-MB-231 cells (2×10^6), A549 cells (2×10^6) with Matrix Type 3), or MEL888 cells (2×10^6 with Matrix Type 3) were injected into athymic nude mice (Charles River); M1 or 4195 cells (50,000) were injected into NOD.SCID mice (JAX); and E0771 cells (0.5×10^6), LLC1 cells (0.5×10^6), or B16F10 cells (1×10^6), were injected into C57BL/6 mice (JAX). For TNBC models (MDA-MB-231, E0771, M1, 4195), cells were injected into the 4th mammary fat pad of the right ventral side. For all other models (A549, LLC1, MEL888, B16F10), cells were injected into the flank. Once tumors reached ˜100 mm^3, ELANE or PMSF-ELANE (11.6 μg/100 μL), or neutrophil medias or HSA (50 μg/100 μL) were delivered IT once/day for 5 days. Tumor volume was assessed by calipers, and experiments were terminated when tumor volume in control mice reached >1000 mm^3.
# Tumor immunohistochemistry. Tumors were fixed in 4% paraformaldehyde in PBS for 24 h, embedded in paraffin blocks, and sectioned (5 μm). Slides were stained with cCASP3 (9661) and cPARP (9625) antibodies from Cell Signaling Technology. Signals were developed using the VECTASTAIN ABC kit (Vector Laboratories) or fluorescently-labeled secondary antibodies (melanoma models). For the TUNEL assay, staining was performed with the DeadEnd™ colorimetric or fluorometric TUNEL systems (Promega). Cell nuclei were labeled with haematoxylin or Hoechst 33342 (ThermoFisher Scientific). Images were obtained with a Nikon Eclipse Ti2 microscope and analyzed using NIS-Elements software.
# tumor immune cells = test: Tumor immune cell analysis by flow cytometry; format: in vivo, mice
# Procedure: Tumor immune cell analysis. […] Cells were labeled with various antibodies and analyzed by flow cytometry. Data were quantified by FlowJo v.10.4.1. Antibodies included: CD45 (47-0451), CD11b (25-0112), MHCII (11-5321), CD4 (17-0041), CD8 (12-0081), CD44 (25-0441) from ThermoFisher Scientific; CD3 (560527), CD62L (561917), from BD Biosciences, and Ly6G (127614) from BioLegend.
# as §1
# E0771 or MEL888 tumors = test: Resistance to ELANE, repeated treatment of tumors in vivo and killing ex vivo; parameters: species or system mice; settings: once/day for 7 days, isolated cancer cells ex vivo
# Excerpt: To explore whether cancer cells could acquire resistance to ELANE, a combination of in vitro and in vivo approaches were used.
# [3] = test system: Human monocyte-derived macrophages (HMDMs); test: Cell viability of HMDMs treated with purified ELANE or ECP; format: cell-based
# Procedure: Primary human blood-derived cells.
# In vitro cell viability assays. […] Luminescence was measured using a Victor X3 luminometer (PerkinElmer).
# cancer cells = test: ELANE internalization by cancer cells and effect of endocytosis inhibitor; format: cell-based; settings: cancer cell lysates, 30 mins
# Procedure: FIGS. 1A-1K. ELANE cleaves CD95 to selectively kill cancer cells. (A): Heatmap summary of ELANE's effects on survival, stress, and apoptosis pathways in cancer cells and healthy cells. (B-C): Cancer cells were treated with ELANE (100 nM) and CD95 cleavage was assessed by western blotting using anti-N-terminal (B) or anti-C-terminal antibodies (C). *, lower molecular weight CD95 fragment. (D): Cancer cells or non-cancer cells were transduced to overexpress CD95 proteins, and effects on ELANE-mediated apoptosis were quantified by ANXAS at 30 min. n=2/group. See FIG. 1I for transduction and CD95 over-expression. (E): Cleavage of recombinant human CD95 N-terminal (aa 1-173) or C-terminal (aa 212-335) proteins by ELANE was assessed by SDS-PAGE and Coomassie blue staining. (F): Bands from (E) were digested with trypsin and analyzed by mass spectrometry to identify putative ELANE cleavage sites (i.e., peptides with non-tryptic ends). Major non-tryptic peptides were quantified by ion chromatograms. (G): Schematic of ELANE cleavage sites in CD95. […] (H): Cleavage of recombinant peptides corresponding to aa 214-231 and aa 317-335 in CD95 by ELANE was monitored by mass spectrometry. (I): Cancer cells or non-cancer cells were treated with fluorescein-labeled ELANE for 10 min and uptake was visualized by immunofluorescence. (J): ELANE catalytic activity in cancer cell lysates following exposure to ELANE for 30 mins in the presence and absence of Dynasore (60 μM endocytosis inhibitor). Effect of Dynasore on cancer cell killing capability of ELANE (measured by calcein-AM). n=6/group. (K): Cancer cells or non-cancer cells were transduced to overexpress various CD95 proteins, and cell viability in the absence of ELANE was determined by calcein-AM. n=10/group. *, p<0.05 Student's t-test.
substance,measurement,setting,value
"ELANE: neutrophil elastase, a serine protease released by human PMNs",cleavage of CD95 N- or C-terminal domain,hCD95,preferentially cleaved the C-terminal domain; also recorded: degrades the C-terminal domain of purified CD95
same,side effects,[1]; ELANE 12 μg/day into mammary fat pads,did not produce evident side effects
same,apoptosis at injection site,[1]; ELANE injected into tumor-free C57BL/6 mice,no evidence of apoptosis was found
same,"therapeutic benefit, dose finding","[2]; E0771 TNBC model, IT, 12 μg/day",good therapeutic benefit that was reproducible
same,tumor growth,"[2]; ELANE 12 μg/day IT, TNBC, lung cancer, melanoma models",attenuated tumor growth in all models tested
same,"staining for TUNEL, cPARP, and cCASP3 in tumors",[2]; ELANE IT,"increase in staining for TUNEL, cPARP, and cCASP3 in all ELANE-treated tumors"
same,tumors with a crater,[2]; all immunocompetent models tested,~40%
same,craters in tumor-free mice and immunocompromised cancer models,"[2]; mouse, in vivo",Craters were not observed
same,immune cells at injection site of tumor-free mice,tumor immune cells; mammary fat pads of tumor-free mice,Immune cell increases were not observed
same,tumor immune cells,tumor immune cells; three immunocompetent models,"increased the number of dendritic cells (DCs), CD8^+ T cells, and CD8^+ T effector cells (CD8^+Teff) in all three immunocompetent models tested"
same,acquired resistance after repeated treatment in vivo,E0771 or MEL888 tumors,did not attenuate ELANE's ability to kill the isolated cancer cells ex vivo
same,"cell viability, purified protein",[3],did not kill Human monocyte-derived macrophages (HMDMs)
same,catalytic activity of internalized ELANE,cancer cells,retained its catalytic activity
